Results published in patent US6787650B1, “Urea compounds, process for producing the same and use thereof” (Takeda Chemical Industries, Ltd., priority 1999, dated 2004).
Where a name gives a salt, the structure may show the parent alone.

Experiments:
human CCR5 = target: T1, human CCR5 (Homo sapiens, UniProt P51681); assay: Inhibition of [125I]-RANTES binding to CHO/CCR5 cells (CCR5 antagonistic activity); settings: 1.0 μM test compound, 100 pM [125I]-RANTES, room temperature, 40 minutes; for inhibition at 1 µM: read-out: Inhibition Rate (%) at 1.0 μM
T1 construct: expressed in transfected cells
T1 sequence (P51681 whole entry): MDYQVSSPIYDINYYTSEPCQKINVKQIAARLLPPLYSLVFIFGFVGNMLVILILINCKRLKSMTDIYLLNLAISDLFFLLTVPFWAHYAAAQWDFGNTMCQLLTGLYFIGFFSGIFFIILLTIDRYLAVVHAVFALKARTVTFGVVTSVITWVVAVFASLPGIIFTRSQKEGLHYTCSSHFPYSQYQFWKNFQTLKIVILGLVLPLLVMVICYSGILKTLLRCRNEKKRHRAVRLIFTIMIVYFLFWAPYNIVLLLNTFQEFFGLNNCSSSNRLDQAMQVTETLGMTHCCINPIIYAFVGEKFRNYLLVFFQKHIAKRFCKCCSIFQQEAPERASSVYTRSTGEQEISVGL
Procedure: Cloning of CCR5 gene was carried out by PCR (polymerase chain reaction) from human spleen cDNA. With using 0.5 ng of spleen cDNA (Toyobo, QUICK-Clone cDNA) as a template, PCR was performed in DNA Thermal Cycler 480 (Perkin-Elmer) (reaction conditions: 30 cycles of 95° C. for 1 minute, 60° C. for 1 minute, and 75° C. for 5 minutes) by adding primer set, 5′-[…]-3′ (25 pmol) and 5′-[…]-3′ (25 pmol), which were designed referring to nucleotide sequence of CCR5 gene reported by Samson et al. (Biochemistry, 35 (11), 3362-3367 (1996)) and by using TaKaRa EX Taq (Takara Shuzo). The resultant PCR product was subjected to agarose gel electrophoresis to collect about 1.0 kb DNA fragment, which was subjected to Original TA Cloning Kit (Funakoshi) to carry out cloning of CCR5 gene.
The plasmid obtained in the above (1) was digested with restriction enzymes XbaI (Takara Shuzo) and BamHI (Takara Shuzo) and subjected to agarose gel electrophoresis to collect about 1.0 kb DNA fragment. The DNA fragment was mixed with plasmid pcDNA3.1 (Funakoshi) for expression in animal cells, said plasmid being digested with XbaI and BamHI, and they were ligated with DNA Ligation Kit Ver.2 (Takara Shuzo). The resulting plasmid was subjected to transformation of competent cell of E. coli JM109 (Takara Shuzo) to give plasmid pCKR5.
CHO-K1 cells were grown in 750 ml of tissue culture flask (Becton Dickinson) using Ham's F12 medium (Nihon Pharmaceutical) containing 10% fetal calf serum (Life Tech Oriental) and took off with 0.5 g/L trypsin-0.2 g/L EDTA (Life Tech Oriental). The cells were washed with PBS (Life Tech Oriental), centrifuged (1000 rpm, 5 minutes), and suspended in PBS. With using Gene Pulser (Bio-Rad Laboratories), DNA was introduced into the cells under the conditions shown below. That is, to the cuvette having 0.4 cm gap were added 8×10^6 cells and 10 μg of plasmid pCKR5 for expression of human CCR5, and electroporation was carried out under 0.25 kV of voltage and 960 μF of capacitance. The cells were transferred into Ham's F12 medium containing 10% fetal calf serum, and cultivated for 24 hours. The cells were again took off and centrifuged, and suspended in Ham's F12 medium containing 10% fetal calf serum and 500 μg/ml of geneticin (Life Tech Oriental). The suspension was diluted to give 10^4 cells/ml of the suspension, which was inoculated on 96 well plate (Becton Dickinson) to give geneticin resistant cells.
Then, the resulting geneticin resistant cells were cultivated in 96 well plate (Becton Dickinson), and cells expressing CCR5 were selected from the geneticin resistant cells. That is, in an assay buffer (Ham's F12 medium containing 0.5% BSA and 20 mM HEPES (Wako Pure Chemical, pH 7.2) to which was added 200 pM of [^125I]-RANTES (Amersham) as a ligand, binding reaction was carried out at room temperature for 40 minutes, and the buffer was washed with ice-cooled PBS. To the buffer was added 50 μl/well of 1M NaOH, and the mixture was stirred. Radioactivity was determined with γ-counter to select CHO/CCR5 cells which specifically bound with the ligand.
(4) Evaluation of Test Compounds Based on CCR5 Antagonistic Activity
The CHO/CCR5 were inoculated on 96 well microplate (5×10^4 cells/well) and cultivated for 24 hours. The medium was removed by means of suction, and to each well was added assay buffer containing Test Compound (1 μl) and then 100 pM of [^125I]-RANTES (Amersham) as a ligand. The reaction was carried out at room temperature for 40 minutes, and assay buffer was removed by means of suction. Each well was washed twice with cooled PBS, and 200 μl of Microscinti-20 (Packard Instrument, Inc.) was added to each well. Radioactivity was determined with Top-Count Micro Scintillation Counter (Packard Instrument, Inc.).
According to the method described above, the inhibition rate of the test compounds for CCR5 binding was determined.

HIV-1 Ba-L = assay: Inhibitory effect on HIV-1 infection to MAGI-CCR5 cell; format: cell-based; settings: Human immunodeficiency virus 1, BAL, 48 h; final concentration 0.16 μM; MAGI-CCR5 cells; 300PFU HIV-1 Ba-L; 37° C., 2 days; blue cells counted
Procedure: (5) Inhibitory Effect on HIV-1 Infection to MAGI-CCR5 Cell
The plasmid where β-galactosidase gene was ligated to the downstream of HIV-1 LTR was introduced into CD4 positive HeLa cell, to which human CCR^5 was further introduced to obtain transformant MAGI-CCR5. By using said transformant MAGI-CCR5, the degree of HIV-1 infection was calculated from β-galactosidase activity (blue color due to decomposition of 5-bromo-4-chloro-3-indolyl-β-D-galactopyranoside). Specifically, MAGI-CCR5 cells were suspended in DMEM medium containing 10% serum to prepare 5×10^4 cells/ml suspension. To each well of 96 well plate was inoculated 200 μl of the suspension, and the cells were cultivated at 37° C. overnight. The medium was removed by means of suction, and to the residue was added 100 μl of the above medium containing 0.32 μM of Test Compound and 100 μl of the above medium containing 300PFU of HIV-1 Ba-L cells. The final concentration of the test compound was 0.16 μM. The cells were cultivated at 37° C. for 2 days. The medium was removed by means of suction. To the residue was added 200 μl of cell fixative (PBS containing 1% formaldehyde and 0.2% glutaraldehyde), and the mixture was allowed to stand at room temperature for 5 minutes and washed twice with PBS. […] The number of blue cells was counted by microscope and defined as the number of cells infected with HIV-1.

Row | Compound | inhibition at 1 µM (human CCR5) [%] | melting point [°C] | further results
1 | O=C(Nc1ccc(Cl)cc1)N(CCCN1CCC(Cc2ccc(S(=O)(=O)N3CCOCC3)cc2)CC1)c1ccccc1 [Example 71, N′-(4-Chlorophenyl)-N-(3-{4-[4-(4-morpholinylsulfonyl)benzyl]-1-piperidinyl}propyl)-N-phenylurea hydrochloride] | 98 | – | –
2 | CS(=O)(=O)c1ccc(CC2CCN(CCCN(C(=O)Nc3ccc(Cl)cc3)c3ccccc3)CC2)cc1.Cl [Example 72, N′-(4-Chlorophenyl)-N-(3-{4-[4-(4-methylsulfonyl)benzyl]-1-piperidinyl}propyl)-N-phenylurea hydrochloride] | – | – | Inhibition Rate (%) at 1.0 μM (human CCR5): 94%
3 | O=C(Nc1cccc2ccccc12)N(CCCN1CCC(Cc2ccccc2)CC1)c1ccccc1 [Example 13, N-[3-(4-Benzyl-1-piperidinyl)propyl]-N′-(1-naphthyl)-N-phenylurea] | 67 | 124 to 127 | –
4 | O=C(Nc1ccc(Cl)cc1)N(CCCN1CCC(Cc2ccc(F)cc2)CC1)c1ccc(Cl)c(Cl)c1 [Example 12, N′-(4-Chlorophenyl)-N-(3,4-dichlorophenyl)-N-{3-[4-(4-fluorobenzyl)-1-piperidinyl]propyl}urea] | 92 | – | –
5 | CCCNC(=O)N(CCCN1CCC(Cc2ccccc2)CC1)c1ccccc1 [Example 7, N-[3-(4-Benzyl-1-piperidinyl)propyl]-N-phenyl-N′-propylurea] | 92 | – | –
6 | O=C(Nc1ccccc1)N(CCCN1CCC(Cc2ccccc2)CC1)c1ccccc1 [Example 1, N-[3-(4-Benzyl-1-piperidinyl)propyl]-N-phenyl-N′-phenylurea hydrochloride] | 96 | – | –
7 | O=C(Nc1ccc(Cl)cc1)N(CCCN1CCC(Cc2ccccc2)CC1)c1ccccc1 [Example 2, N-[3-(4-Benzyl-1-piperidinyl)propyl]-N′-(4-chlorophenyl)-N-phenylurea] | – | 101 to 103 | –
8 | Cc1ccc(N(CCCN2CCC(Cc3ccccc3)CC2)C(=O)Nc2ccc(Cl)cc2)cc1 [Example 10, N-[3-(4-Benzyl-1-piperidinyl)propyl]-N′-(4-chlorophenyl)-N-(4-methylphenyl)urea hydrochloride] | 100 | – | –
9 | O=C(NC1CCCCC1)N(CCCN1CCC(Cc2ccccc2)CC1)c1ccccc1 [Example 6, N-[3-(4-Benzyl-1-piperidinyl)propyl]-N′-cyclohexyl-N-phenylurea] | – | 106 to 108 | –
10 | O=C(Nc1ccc(Cl)cc1)N(CCCN1CCC(Cc2ccccc2)CC1)c1ccccc1 [Example 76, N-[3-(4-Benzyl-1-piperidinyl)propyl]-N′-(4-chlorophenyl)-N-phenylurea hydrochloride] | – | – | inhibition at 0.16 µM (HIV-1 Ba-L): 98%
